We go through three compounds from patent US11951149B2, “Intranasal vasopressin treatment of social deficits in autism” (The Board of Trustees of the Leland Stanford Junior …, priority 2018, dated 2024).

Data set [1] relates to children with ASD. Nature of the data set: Clinical chemistry, change from baseline, 4-week trial. It is filed as in vivo, human. As to conditions: after 4-week treatment. The procedure: (§1) Commercially available injectable sterile AVP was used in this study. It was initially purchased from JHP Pharmaceuticals (Rochester, MI), which was subsequently acquired by Par Sterile Products (Chestnut Ridge, NY) in 2014. The placebo solution was prepared by Koshland Pharm (San Francisco, CA) and consisted of ingredients used in the active solution except the AVP compound. A pharmacist transferred 25 mL of AVP (20 International Units (IU)/mL) or placebo solutions into sterile amber glass bottles with metered (0.1 mL/per puff) nasal spray applicators to ensure that the AVP and placebo applicators were visually indistinguishable to the research team. These applicators were coded and given to the Stanford Health Care's Investigational Drug Service (IDS) for refrigerated storage (2-8° C.) and subsequent dispensing. Following the first AVP dose (see below), the dose escalation regimen for all participants involved administration of 4 IU twice daily (or BID) of AVP during week 1 and 8 IU BID of AVP during week 2. Participants aged 6 to 9.5 years then received 12 IU BID of AVP during weeks 3 and 4, while participants aged 9.6 to 12.92 years received 16 IU BID of AVP during weeks 3 and 4.
(§2) Parents were trained in the clinic by research staff to administer the nasal spray to their child. The first dose was administered in the ADDC under the direct supervision of the research team (with the first dose being 12 IU for participants aged 6 to 9.5 years and 16 IU for participants aged 9.6 to 12.92 years). Vital signs were monitored before, and 20 minutes after, initial single-dose nasal spray administration to monitor for acute, unanticipated reactions to AVP. Participants' parents then received two 25 mL nasal spray bottles containing either AVP or placebo for 4 weeks of at-home dispensing (as described above), for which they were responsible for their child's continued twice daily dosing. Parents were instructed to keep the bottles refrigerated with only brief room temperature excursions (i.e., for dosing). Participants underwent weekly safety/tolerability assessments in the clinic to monitor for adverse events. On completion of the 4-week treatment period, behavioral data, safety/tolerability data, and blood samples were again collected. After completion of the trial, participants randomized to the placebo group were invited to participate in an optional open-label 4-week AVP treatment phase to ensure that all children had the opportunity to receive AVP treatment.
(§3) Throughout the trial, safety and tolerability were assessed weekly using the following measurements: vital signs, 12-lead electrocardiogram, clinical chemistry labs, and height and weight. Side effects were evaluated with the DOTES (51), and modified to assess potential side effects that might be related to AVP such as hyponatremia/water intoxication. Finally, based on animal studies showing that AVP can induce aggressive behavior under some circumstances (39, 40), the OAS was used to monitor for observable aggressive or violent behavior in this trial (52).
Whole blood was drawn from the child's antecubital region by a pediatric phlebotomist using standard protocols at Lucile Packard Children's Hospital outpatient laboratory. A portion of the sample was collected per standard laboratory protocols and sent for clinical chemistry analysis. To evaluate AVP concentrations, whole blood was also collected into chilled EDTA-treated vacutainer tubes and immediately placed on wet ice. Samples were promptly centrifuged (1600×g at 4° C. for 15 min), the plasma fraction aliquoted into polypropylene tubes, and flash-frozen on dry ice. Whole blood was also collected into PAXgene RNA tubes (Qiagen, CA) and processed per manufacturer instruction to evaluate neuropeptide receptor gene expression [i.e., oxytocin receptor (OXTR) and AVPR1A]. All samples were stored at −80° C. until quantification. […]

For data set [2], the system named is children with ASD. Put plainly: Adverse events assessed by the DOTES and OAS, 4-week trial. It is filed as in vivo, human. The procedure: as §1, §2, §3
One-way LS-GLMs were used to test the change from baseline between the AVP and placebo treatment groups following 4-week treatment for adverse events and safety measures. Fisher's exact Test was used to test for differences between treatment conditions for participant characteristics and concomitant medications. Suitable transformations were applied as needed.

Data set [3] deals with children with ASD. Nature of the data set: Height and weight, change from baseline, 4-week trial. As to conditions: after 4-week treatment. Type of data set: in vivo, human. The procedure: Commercially available injectable sterile AVP was used in this study. It was initially purchased from JHP Pharmaceuticals (Rochester, MI), which was subsequently acquired by Par Sterile Products (Chestnut Ridge, NY) in 2014. The placebo solution was prepared by Koshland Pharm (San Francisco, CA) and consisted of ingredients used in the active solution except the AVP compound. A pharmacist transferred 25 mL of AVP (20 International Units (IU)/mL) or placebo solutions into sterile amber glass bottles with metered (0.1 mL/per puff) nasal spray applicators to ensure that the AVP and placebo applicators were visually indistinguishable to the research team. […]
Parents were trained in the clinic by research staff to administer the nasal spray to their child. […] Vital signs were monitored before, and 20 minutes after, initial single-dose nasal spray administration to monitor for acute, unanticipated reactions to AVP. […]
Throughout the trial, safety and tolerability were assessed weekly using the following measurements: vital signs, 12-lead electrocardiogram, clinical chemistry labs, and height and weight. Side effects were evaluated with the DOTES (51), and modified to assess potential side effects that might be related to AVP such as hyponatremia/water intoxication. […]

In data set [4] the test system is children with ASD. Put plainly: 12-lead electrocardiogram, change from baseline, 4-week trial. Type of data set: in vivo, human. The settings on record: after 4-week treatment. The procedure: as §1, §2, §3
(§4) Treatment effect generalizability was evaluated using: 1) the RBS-R which measures a comprehensive list of repetitive and stereotyped behaviors (61); and 2) The Spence Children's Anxiety Scale which assesses the severity of trait anxiety symptoms broadly in line with DSM dimensions of anxiety disorder (62). Anxiety was selected as an outcome measure due to its significant comorbidity with ASD (63). Finally, safety and tolerability were evaluated using: 1) the DOTES (51); and 2) change from baseline in electrocardiogram, clinical chemistry labs, vital signs (i.e., blood pressure, heart rate, temperature), as well as height and weight.
(§5) One-way LS-GLMs were used to test the change from baseline between the AVP and placebo treatment groups following 4-week treatment for adverse events and safety measures. […]

In data set [5] the test system is children with ASD. Nature of the data set: Vital signs, change from baseline, 4-week trial. It is filed as in vivo, human. As to conditions: after 4-week treatment. The procedure: as §1, §2, §3, §4, §5
The conditions of data set [6]: intranasal administration; cited from earlier work.
Data set [7] relates to high-functioning adults with ASD. As to conditions: single dose intravenous, cited from earlier work.
In data set [8] the test system is ASD in children. Nature of the data set: Intranasal administration of desmopressin in children with ASD. It is filed as in vivo, human.
Setting [9] is: Dermatological, 4-week treatment, N = 17.
Setting [10] is: Gastrointestinal, 4-week treatment, N = 17.
Setting [11] is: General, 4-week treatment, N = 17.
[12] abbreviates: HEENT, 4-week treatment, N = 17.
The mark [13] stands for this setting: Neurological/Psychiatric, 4-week treatment, N = 17.
Setting [14] is: Renal, 4-week treatment, N = 17.
The mark [15] stands for this setting: post hoc sub-test, not corrected for multiple comparisons.

Take `NC(=O)CC[C@@H]1NC(=O)[C@H](Cc2ccccc2)NC(=O)[C@H](Cc2ccc(O)cc2)NC(=O)[C@@H](N)CSSC[C@@H](C(=O)N2CCC[C@H]2C(=O)N[C@@H](CCCN=C(N)N)C(=O)NCC(N)=O)NC(=O)[C@H](CC(N)=O)NC1=O` [AVP, arginine vasopressin]: in data set [1], the “Change from baseline LSM +/− SE: Anion Gap” value is -0.65 ± 0.78 mmol/L, the “Change from baseline LSM +/− SE: CO2” value is -0.12 ± 0.57 mmol/L, the “Change from baseline LSM +/− SE: Calcium” value came out at 0.047 ± 0.07 mg/dL and the “Change from baseline LSM +/− SE: Chloride” value stood at 1.0 ± 0.56 mmol/L. In data set [1], the “Change from baseline LSM +/− SE: Creatine” value was -0.017 ± 0.03 mg/dL, the “Change from baseline LSM +/− SE: Glucose” value is given as 2.2 ± 4.41 mg/dL, the “Change from baseline LSM +/− SE: Osmolality (Serum)” value came out at 0.18 ± 1.01 mOsm/kg and the “Change from baseline LSM +/− SE: Osmolality (Urine)” value is listed as 8.5 ± 82.6 mOsm/kg. Further, in data set [1], the “Change from baseline LSM +/− SE: Potassium” value turned out to be 0.15 ± 0.11 mmol/L, the “Change from baseline LSM +/− SE: Sodium” value was found to be 0.24 ± 0.63 mmol/L, the “Change from baseline LSM +/− SE: Urea Nitrogen” value is -1.3 ± 0.78 mg/dL and the “Changes from baseline in clinical chemistry” value is “No significant changes from baseline”. In addition, the Tolerability result in data set [2] (4-week intranasal treatment) is given as “well tolerated with minimal adverse effects”. Also, in data set [2] (4-week treatment, parent ratings), the “Adverse event rates compared to placebo-treated group (DOTES, OAS)” value is given as “no significant differences”. In addition, in data set [2] (setting [9]), the “Adverse event: Bug bite” value was 1 (6%) counts and percentages; the “Adverse event: Skin burn” value was 0 (0%) counts and percentages; the “Adverse event: Skin rash” value is 1 (6%) counts and percentages. Besides, in data set [2] (setting [10]), the “Adverse event: Constipation” value was 1 (6%) counts and percentages; the “Adverse event: Decreased appetite” value was 4 (24%) counts and percentages; the “Adverse event: Diarrhea” value was 0 (0%) counts and percentages; the “Adverse event: Nausea/vomiting” value is 2 (12%) counts and percentages. In addition, in data set [2] (setting [11]), the “Adverse event: Body ache” value was 1 (6%) counts and percentages; the “Adverse event: Cough” value is 1 (6%) counts and percentages; the “Adverse event: Fever” value was 2 (12%) counts and percentages. Besides, in data set [2] (setting [12]), the “Adverse event: Blurred vision” value was 1 (6%) counts and percentages; the “Adverse event: Cold sore” value is 0 (0%) counts and percentages; the “Adverse event: Dry mouth” value was 1 (6%) counts and percentages; the “Adverse event: Ear infection” value is 0 (0%) counts and percentages. Further, in data set [2] (setting [12]), the “Adverse event: Nasal congestion” value was 3 (18%) counts and percentages; the “Adverse event: Runny nose” value is 0 (0%) counts and percentages; the “Adverse event: Sore throat” value was 0 (0%) counts and percentages. For the same compound, in data set [2] (setting [13]), the “Adverse event: Aggression” value is 1 (6%) counts and percentages; the “Adverse event: Akathisia” value was 1 (6%) counts and percentages; the “Adverse event: Decreased motor activity” value was 1 (6%) counts and percentages; the “Adverse event: Depressive affect” value was 2 (12%) counts and percentages. In addition, in data set [2] (setting [13]), the “Adverse event: Dizziness” value was 0 (0%) counts and percentages; the “Adverse event: Drowsiness” value is 1 (6%) counts and percentages; the “Adverse event: Excitement/agitation” value is 4 (24%) counts and percentages; the “Adverse event: Head banging” value was 1 (7%) counts and percentages. Besides, in data set [2] (setting [13]), the “Adverse event: Headache” value is 2 (12%) counts and percentages; the “Adverse event: Increased motor activity” value is 4 (24%) counts and percentages; the “Adverse event: Insomnia” value was 4 (24%) counts and percentages; the “Adverse event: Lethargy/tiredness” value was 0 (0%) counts and percentages. Also, in data set [2] (setting [14]), the “Adverse event: Bed wetting” value is 1 (6%) counts and percentages; the “Adverse event: Increased urination” value is 1 (6%) counts and percentages. For the same compound, in data set [3], the “Change from baseline LSM +/− SE: Height” value is reported as 0.8 ± 0.23 centimeters and the “Changes from baseline in physiological measures” value is “No significant changes from baseline”. The “Changes from baseline in 12-lead electrocardiogram” value in data set [4] is given as “No significant changes from baseline”. Also, in data set [4] (electrocardiogram), the “Change from baseline LSM +/− SE: Bazett’s Corrected QT Interval” value was -1.9 ± 5.07 ms, the “Change from baseline LSM +/− SE: Heart Rate” value is −2.5 ± 3.75 bpm, the “Change from baseline LSM +/− SE: P Duration” value was -2.6 ± 5.76 ms and the “Change from baseline LSM +/− SE: PR Intervals” value was -4.6 ± 6.40 ms. In data set [4] (electrocardiogram), the “Change from baseline LSM +/− SE: QRS Interval” value came to 0.4 ± 1.55 ms and the “Change from baseline LSM +/− SE: QT Interval” value was determined as 3.5 ± 5.53 ms. Also, in data set [5], the “Change from baseline LSM +/− SE: BP Change Diastolic (Standin-Sitting)” value is −3.1 ± 2.65; the “Change from baseline LSM +/− SE: BP Change Systolic (Standing-Sitting)” value is on record as −3.6 ± 2.76; the “Change from baseline LSM +/− SE: BP, Diastolic, Sitting” value stood at 3.2 ± 2.09 mmHg; the “Change from baseline LSM +/− SE: BP, Diastolic, Standing” value is 0.1 ± 2.31 mmHg. In addition, in data set [5], the “Change from baseline LSM +/− SE: BP, Systolic, Sitting” value turned out to be 5.5 ± 2.53 mmHg; the “Change from baseline LSM +/− SE: BP, Systolic, Standing” value came out at 1.9 ± 2.38 mmHg; the “Change from baseline LSM +/− SE: Pulse change” value turned out to be 2.1 ± 2.75 beats per minute; the “Change from baseline LSM +/− SE: Pulse sitting” value is given as 1.9 ± 3.87 beats per minute. Moreover, in data set [5], the “Change from baseline LSM +/− SE: Pulse standing” value stood at 4.0 ± 3.57 beats per minute, the “Change from baseline LSM +/− SE: Temperature” value was determined as 0.2 ± 0.17 ° F and the “Changes from baseline in vital signs” value is reported as “No significant changes from baseline”. In addition, in data set [6], the “Cerebrospinal fluid (CSF) concentrations of measured AVP” value was “elevated”.

As for `CN(C)CCn1cc(C(=O)N2CCC3(CC2)OCc2ccccc23)c2ccc(Cl)cc21` [RG7713], in data set [7], the “Improvements on overall composite tests” value was “non-significant”. In data set [7] (setting [15]), the “Ability to detect lust on an affective speech recognition task” value is recorded as “reduced” and the “Biological motion orienting preference” value is on record as “increased”.

Turning to `NC(=O)CC[C@@H]1NC(=O)[C@H](Cc2ccccc2)NC(=O)[C@H](Cc2ccc(O)cc2)NC(=O)CCSSC[C@@H](C(=O)N2CCC[C@H]2C(=O)N[C@H](CCCN=C(N)N)C(=O)NCC(N)=O)NC(=O)[C@H](CC(N)=O)NC1=O` [desmopressin, 1-deamino-8-D-arginine-vasopressin], in data set [8], the “Treatment of ASD in children” value is given as “not found to effectively treat ASD”.
